# Measurements: patent US20230174660A1, “USE OF A MULTIMERIC ANTI-DR5 BINDING MOLECULE IN COMBINATION WITH A CANCER THERAPY FOR TREATING CANCER” (IGM Biosciences, Inc., priority 2020, published 2023)
# How the values were obtained:
# EBC-1 tumor cells = assay: EBC-1 non-small cell lung cancer (NSCLC) model (Example 11); assay type: in vivo, mice; settings: birinapant 30 mg/kg i.p. every 3 days, alone or with Mab A 5 mg/kg i.v.; n=10 animals/group
# Description: 3×10^6 EBC-1 tumor cells were implanted subcutaneously in the flanks of female BALB/c nude mice.
# MDA-MB-231 tumor cells = assay: Cell Titer Glo viability, Mab A + SMAC mimetic (Example 7); settings: MDA-MB-231 cells; 72 hours
# SA3840 tumor fragments = assay: SA3840 osteosarcoma PDX model (Example 11); assay type: in vivo, mice; settings: birinapant 30 mg/kg i.p., alone or with Mab A 5 mg/kg i.v.; n=5 animals/group
# HCT 116 [1] = assay: Cell Titer Glo viability, Mab A + SMAC mimetics (Example 13); assay type: cell-based; settings: SMAC mimetic in combination with Mab A
# Experimental: (§1) Synergy was determined as described in earlier examples. The average Bliss synergy scores for combinations of Mab A and SMAC mimetic on the various tumor cell lines are shown in Table 15.
# HT 1080 [2] = assay: as above; assay type: cell-based; settings: SMAC mimetic in combination with Mab A
# Experimental: as §1
# EBC-1 = assay: as above; assay type: cell-based; settings: SMAC mimetic in combination with Mab A
# Experimental: as §1
# SW1353 [3] = assay: as above; assay type: cell-based; settings: SMAC mimetic in combination with Mab A
# Experimental: as §1
# OVCAR-4 = assay: as above; assay type: cell-based; settings: SMAC mimetic in combination with Mab A
# Experimental: as §1
# SK-MEL-5 = assay: as above; assay type: cell-based; settings: SMAC mimetic in combination with Mab A
# Experimental: as §1
# [4] = system: DR5 agonist-resistant MDA-MB-231 cells; assay: Cell Titer Glo viability, Mab A + SMAC mimetic on DR5 agonist-resistant tumor cells (Example 8); assay type: cell-based
# MEWO = assay: Cell Titer Glo viability, Mab A + birinapant (Example 10); assay type: cell-based; settings: MEWO (Melanoma)
# Experimental: (§2) Cell viability curves for combinations of anti-DR5 IgM Mab A with birinapant on A2058, BT-20, DV-90, ES-2, HCC15, HCT 116, HT 1080, KYSE 410, MEWO, OVCAR-5, SK-LU-1, SK-MEL-5, SNU-1, SW780, SW1353, and T24 are shown in FIGS. 19A, 19C, 19E, 19G, 19I, 19K, 19M, 19O, 19Q, 19S, 19U, 19W, 19Y, 19AA, 19AC, and 19AE, respectively. Synergy was determined as described in earlier examples.
# HCT 116 [5] = assay: as above; assay type: cell-based; settings: HCT 116 (Colorectal)
# Experimental: as §2
# HCC15 = assay: as above; assay type: cell-based; settings: HCC15 (Lung)
# Experimental: as §2
# T24 = assay: as above; assay type: cell-based; settings: T24 (Bladder)
# Experimental: as §2
# HT 1080 [6] = assay: as above; assay type: cell-based; settings: HT 1080 (Fibrosarcoma)
# Experimental: as §2
# KYSE 410 = assay: as above; assay type: cell-based; settings: KYSE 410 (Esophageal)
# Experimental: as §2
# A2058 = assay: as above; assay type: cell-based; settings: A2058 (Melanoma)
# Experimental: as §2
# BT-20 = assay: as above; assay type: cell-based; settings: BT-20 (TNBC)
# Experimental: as §2
# OVCAR-5 = assay: as above; assay type: cell-based; settings: OVCAR-5 (Ovarian)
# Experimental: as §2
# SW1353 [7] = assay: as above; assay type: cell-based; settings: SW1353 (Chondrosarcoma)
# Experimental: as §2
# ES-2 = assay: as above; assay type: cell-based; settings: ES-2 (Ovarian)
# Experimental: as §2
# SW780 = assay: as above; assay type: cell-based; settings: SW780 (Bladder)
# Experimental: as §2
# SNU-1 = assay: as above; assay type: cell-based; settings: SNU-1 (Gastric)
# Experimental: as §2
# KYSE150 = assay: Cell Titer Glo viability, Mab A + birinapant, head and neck tumor cell lines (Example 12); assay type: cell-based; settings: KYSE150 head and neck cancer cell line
# Experimental: (§3) Exemplary cell viability curves for combinations of anti-DR5 IgM Mab A with birinapant on Detroit 562 and KYSE270 are shown in FIGS. 22A and 22C, respectively. Synergy was determined as described in earlier examples. […] The Average Bliss synergy scores for combinations of Mab A and birinapant on the various head and neck tumor cell lines are shown in Table 14.
# A253 = assay: as above; assay type: cell-based; settings: A253 head and neck cancer cell line
# Experimental: as §3
# 8305C = assay: as above; assay type: cell-based; settings: 8305C head and neck cancer cell line
# Experimental: as §3
# OE19 = assay: as above; assay type: cell-based; settings: OE19 head and neck cancer cell line
# Experimental: as §3
# FaDu = assay: as above; assay type: cell-based; settings: FaDu head and neck cancer cell line
# Experimental: as §3
# TE-1 = assay: as above; assay type: cell-based; settings: TE-1 head and neck cancer cell line
# Experimental: as §3
# Detroit 562 = assay: as above; assay type: cell-based; settings: Detroit 562 head and neck cancer cell line
# Experimental: as §3
# KYSE270 = assay: as above; assay type: cell-based; settings: KYSE270 head and neck cancer cell line
# Experimental: as §3
# 8505C = assay: as above; assay type: cell-based; settings: 8505C head and neck cancer cell line
# Experimental: as §3
# KYSE-70 = assay: as above; assay type: cell-based; settings: KYSE-70 head and neck cancer cell line
# Experimental: as §3
# KYSE410 = assay: as above; assay type: cell-based; settings: KYSE410 head and neck cancer cell line
# Experimental: as §3
smiles,measurement,setting,value
"CC[C@H](NC(=O)[C@H](C)NC)C(=O)N1C[C@@H](O)C[C@H]1Cc1c(-c2[nH]c3cc(F)ccc3c2C[C@@H]2C[C@H](O)CN2C(=O)[C@H](CC)NC(=O)[C@H](C)NC)[nH]c2cc(F)ccc12 [birinapant, Birinapant]",mice that missed doses due to body weight loss,EBC-1 tumor cells,3 mice
same,single agent cytotoxicity (cell viability curves),MDA-MB-231 tumor cells,little to no cytotoxicity
same,animals that missed doses due to body weight loss,SA3840 tumor fragments,1 animal
same,Average Bliss score,HCT 116 [1],31
same,Average Bliss score,HT 1080 [2],30
same,Average Bliss score,EBC-1,39
same,Average Bliss score,SW1353 [3],−0.6
same,Average Bliss score,OVCAR-4,14
same,Average Bliss score,SK-MEL-5,14
same,single agent cytotoxicity (cell viability curves),[4],little to no cytotoxicity
same,Avg Bliss score,MEWO,26
same,Avg Bliss score,HCT 116 [5],36
same,Avg Bliss score,HCC15,41
same,Avg Bliss score,T24,38
same,Avg Bliss score,HT 1080 [6],45
same,Avg Bliss score,KYSE 410,42
same,Avg Bliss score,A2058,49
same,Avg Bliss score,BT-20,4
same,Avg Bliss score,OVCAR-5,17
same,Avg Bliss score,SW1353 [7],18
same,Avg Bliss score,ES-2,19
same,Avg Bliss score,SW780,35
same,Avg Bliss score,SNU-1,39
same,Average Bliss score,KYSE150,0.2
same,Average Bliss score,A253,26
same,Average Bliss score,8305C,27
same,Average Bliss score,OE19,17
same,Average Bliss score,FaDu,16
same,Average Bliss score,TE-1,29
same,Average Bliss score,Detroit 562,36
same,Average Bliss score,KYSE270,15
same,Average Bliss score,8505C,10
same,Average Bliss score,KYSE-70,25
same,Average Bliss score,KYSE410,35
